Measurements taken from article PMC9792776 (Frontiers in Pharmacology, 2022).
Like-named read-outs stand apart in the source and are kept apart here.

Assays:
[1] = Fraction unbound (fu) in human plasma; format: in vitro ADME
[2] = Blood/plasma (B/P) ratio in healthy volunteer blood; format: in vitro ADME, human
Source text: Besides, the B/P ratio was obtained from healthy volunteer blood, however, in patients with CML, too many myeloid cells become granulocytes (red blood cells, platelets and several white blood cell types). So, red blood cell count might change B/P ratio in CML patients. […] Furthermore, the model simulation for liver cirrhosis patients was not validated by clinical data. We believe that further research is needed on this point.

[3] = pKa; format: physicochemical
Source text: TABLE 1 Model development and model parameters. | column: Value

[4] = target: CYP2C9 (Homo sapiens, UniProt P11712); experiment: CYP2C9 inhibition in human liver microsomes (diclofenac probe)
Chain of CYP2C9 (Homo sapiens, UniProt P11712) (P11712 whole entry): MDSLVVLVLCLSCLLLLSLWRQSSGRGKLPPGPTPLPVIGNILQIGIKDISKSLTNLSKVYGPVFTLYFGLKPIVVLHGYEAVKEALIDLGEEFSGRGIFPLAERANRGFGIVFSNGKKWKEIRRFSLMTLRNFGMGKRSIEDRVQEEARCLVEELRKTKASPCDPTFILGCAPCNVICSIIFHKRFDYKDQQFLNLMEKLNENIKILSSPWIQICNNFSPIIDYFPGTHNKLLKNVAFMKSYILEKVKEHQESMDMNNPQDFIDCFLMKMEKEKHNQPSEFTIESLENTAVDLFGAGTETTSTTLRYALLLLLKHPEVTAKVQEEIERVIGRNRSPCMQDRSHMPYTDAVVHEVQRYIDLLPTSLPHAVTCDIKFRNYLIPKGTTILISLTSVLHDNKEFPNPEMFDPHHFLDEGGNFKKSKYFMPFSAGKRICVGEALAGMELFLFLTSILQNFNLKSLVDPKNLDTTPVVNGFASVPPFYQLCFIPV
Experimental: (§1) Ki=IC50/1+S/Km (1) Where IC50 signifies the half-maximum inhibitory concentration; S, the concentration of P450 marker substrate; and K m , the Michaelis constant within the Michaelis-Menten equation, which is in turn used to characterize substrate-enzyme binding kinetics.
(§2) The Michaelis constant (K m ) of CYP2C9 incubated with diclofenac was obtained from reported data ([Lee et al., 2014]). Methods used to calculate the Ki of CYP2C19 and CYP2C9 were similar.

[5] = target: CYP2C19 (Homo sapiens, UniProt P33261); experiment: CYP2C19 inhibition in human liver microsomes
Chain of CYP2C19 (P33261 whole entry): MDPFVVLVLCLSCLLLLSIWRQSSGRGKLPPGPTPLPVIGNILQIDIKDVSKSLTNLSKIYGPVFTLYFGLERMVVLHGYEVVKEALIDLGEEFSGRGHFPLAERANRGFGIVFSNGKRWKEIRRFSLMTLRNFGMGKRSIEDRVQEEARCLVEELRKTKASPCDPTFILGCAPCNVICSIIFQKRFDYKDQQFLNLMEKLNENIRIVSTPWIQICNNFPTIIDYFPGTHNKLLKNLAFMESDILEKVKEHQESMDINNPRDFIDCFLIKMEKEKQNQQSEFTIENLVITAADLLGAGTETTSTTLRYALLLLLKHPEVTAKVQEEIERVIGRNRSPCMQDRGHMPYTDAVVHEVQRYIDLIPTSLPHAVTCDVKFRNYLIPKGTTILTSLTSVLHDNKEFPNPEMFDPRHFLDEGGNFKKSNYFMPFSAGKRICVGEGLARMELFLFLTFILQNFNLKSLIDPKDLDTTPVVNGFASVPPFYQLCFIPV
Experimental: as §1, §2

[6] = target: MATE2K (Homo sapiens, UniProt Q86VL8); experiment: Transporter substrate/inhibitor assessment, MATE2K; format: in vitro ADME
Chain of MATE2K (Q86VL8 1-566 isoform Q86VL8-3, species assumed): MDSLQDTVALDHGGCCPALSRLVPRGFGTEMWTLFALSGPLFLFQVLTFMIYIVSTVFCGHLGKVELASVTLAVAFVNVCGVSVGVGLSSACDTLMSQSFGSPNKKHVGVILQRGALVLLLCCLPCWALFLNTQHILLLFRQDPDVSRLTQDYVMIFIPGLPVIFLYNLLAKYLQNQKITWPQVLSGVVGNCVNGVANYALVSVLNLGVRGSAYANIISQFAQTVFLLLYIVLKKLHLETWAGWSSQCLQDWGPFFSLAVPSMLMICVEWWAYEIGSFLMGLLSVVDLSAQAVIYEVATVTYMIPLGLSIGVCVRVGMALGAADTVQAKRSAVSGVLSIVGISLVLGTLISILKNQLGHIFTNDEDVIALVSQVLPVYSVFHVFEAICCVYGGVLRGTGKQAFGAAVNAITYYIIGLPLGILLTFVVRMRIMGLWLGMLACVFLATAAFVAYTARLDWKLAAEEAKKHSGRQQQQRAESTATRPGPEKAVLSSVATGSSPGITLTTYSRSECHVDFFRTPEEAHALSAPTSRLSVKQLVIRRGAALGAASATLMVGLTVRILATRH

[7] = target: P-gp (Homo sapiens, UniProt P08183); experiment: P-gp substrate and in vivo inhibition assessment
Chain of P-gp (P08183 whole entry): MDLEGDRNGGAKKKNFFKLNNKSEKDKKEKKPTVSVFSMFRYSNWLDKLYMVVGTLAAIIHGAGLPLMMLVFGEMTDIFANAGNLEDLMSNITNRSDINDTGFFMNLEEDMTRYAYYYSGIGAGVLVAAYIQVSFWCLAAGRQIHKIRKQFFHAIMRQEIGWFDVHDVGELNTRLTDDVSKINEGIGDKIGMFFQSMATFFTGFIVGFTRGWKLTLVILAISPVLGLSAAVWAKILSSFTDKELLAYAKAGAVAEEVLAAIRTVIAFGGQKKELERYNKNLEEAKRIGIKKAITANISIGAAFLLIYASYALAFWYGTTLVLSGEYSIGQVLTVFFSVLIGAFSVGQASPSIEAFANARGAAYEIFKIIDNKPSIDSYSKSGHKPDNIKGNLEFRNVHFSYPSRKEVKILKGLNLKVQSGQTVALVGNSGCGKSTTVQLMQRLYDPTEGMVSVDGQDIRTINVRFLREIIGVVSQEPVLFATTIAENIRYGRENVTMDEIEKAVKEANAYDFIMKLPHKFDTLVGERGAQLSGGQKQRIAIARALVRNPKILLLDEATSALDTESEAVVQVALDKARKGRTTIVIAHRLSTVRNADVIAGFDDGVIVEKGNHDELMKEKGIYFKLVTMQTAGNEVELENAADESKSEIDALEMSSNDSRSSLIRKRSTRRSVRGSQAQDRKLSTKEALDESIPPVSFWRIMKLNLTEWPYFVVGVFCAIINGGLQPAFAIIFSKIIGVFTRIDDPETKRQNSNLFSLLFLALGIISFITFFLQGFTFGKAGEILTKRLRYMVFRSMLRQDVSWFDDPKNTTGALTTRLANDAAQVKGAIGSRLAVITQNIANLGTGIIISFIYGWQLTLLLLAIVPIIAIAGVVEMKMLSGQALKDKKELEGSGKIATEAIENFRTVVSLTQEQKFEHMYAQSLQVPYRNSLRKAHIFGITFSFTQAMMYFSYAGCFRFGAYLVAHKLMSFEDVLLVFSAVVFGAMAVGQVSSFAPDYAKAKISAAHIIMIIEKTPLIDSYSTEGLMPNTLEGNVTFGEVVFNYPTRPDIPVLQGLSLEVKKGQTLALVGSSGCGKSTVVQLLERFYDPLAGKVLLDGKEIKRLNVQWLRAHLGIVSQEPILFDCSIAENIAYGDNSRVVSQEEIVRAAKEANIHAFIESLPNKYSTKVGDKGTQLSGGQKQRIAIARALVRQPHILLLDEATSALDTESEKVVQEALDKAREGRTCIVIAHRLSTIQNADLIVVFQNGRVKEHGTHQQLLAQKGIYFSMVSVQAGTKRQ
Source text: The effects of transporters expressed on the gut and liver have not been investigated.

[8] = tested on: CYP2C9
[9] = tested on: T315I-mutated CML; conditions: 40 mg QOD, 28-day cycles over 24 months, ref Jiang et al., 2022, cited from earlier work
[10] = tested on: imatinib-resistant and imatinib-sensitive gastrointestinal stromal tumor cell lines; design: method as in Liu et al., 2019; conditions: imatinib-resistant and imatinib-sensitive GIST cell lines; ref Liu et al., 2019; cited from earlier work

SMILES: Cc1ccc(C(=O)Nc2ccc(CN3CCN(C)CC3)c(C(F)(F)F)c2)cc1C#Cc1cnc2[nH]ncc2c1 [olverembatinib, Olverembatinib]
- fraction unbound ([1]; mean of three test concentrations, read-out: mean fu (fu,p, fraction unbound in plasma)): 0.0005
- fraction unbound at 80 ng/ml ([1]; test concentration 80 ng/ml, read-out: fu (N=3)): 0.0007
- fraction unbound at 400 ng/ml ([1]; test concentration 400 ng/ml, read-out: fu (N=3)): 0.0004
- fraction unbound at 4000 ng/ml ([1]; test concentration 4000 ng/ml, read-out: fu (N=3)): 0.0004
- mean conc (N=3) ([2]; blood H): 43.5
- mean conc (N=3) ([2]; blood L): 0.395
- mean conc (N=3) ([2]; blood M): 4.01
- mean conc (N=3) ([2]; plasma H): 45.9
- mean conc (N=3) ([2]; plasma L): 0.25
- mean conc (N=3) ([2]; plasma M): 2.95
- pKa ([3]; read-out: pKa 1): 2.9
- pKa ([3]; read-out: pKa 2): 10.9
- Ki [4]: 1140 nM
- CYP2C9 inhibition, strength ([4]; microsomes): weak
- Ki [5]: 1920 nM
- CYP2C19 inhibition, strength ([5]; microsomes): weak
- substrate or inhibitor of MATE2K [6]: neither a substrate nor inhibitor
- in vivo inhibition on P-gp [7]: no obvious in vivo inhibition
- substrate of P-gp [7]: is a substrate
- CYP2C9 induction, strength ([8]; hepatocytes): weak
- EC50 ([8]; human): 323 nM
- major hematologic response (MaHR), patients ([9]; CML-AP, n = 37 without MaHR at baseline): 78.4%
- major cytogenetic response (MCyR), patients ([9]; CML-CP, n = 121 without MCyR at baseline): 79.3%
- antiproliferative activity compared with ponatinib [10]: equivalent or more potent antiproliferative activity
